Test results as given in patent US20060013804A1, “Modulation of stem cell differentiation by modulation of caspase-3 activity” (Ottawa Health Research Institute, priority 2002, published 2006).
Entries after “also recorded” stand apart in the source; their conditions may differ.

How the values were obtained:
Assay type in all cases: cell-based, mouse
PAK2 = experiment: Immunoprecipitation/kinase assay of PAK2 from neurospheres; settings: inhibited vs control treated cultures, neurosphere differentiation
[1] = test system: clonally-derived CD1 neurospheres; experiment: CD1 neurosphere differentiation with caspase inhibitor: immunocytochemistry and immunoblot of neural markers; settings: for nestin expression under differentiation conditions: early periods (48 h)
Method: Neurosphere culture: clonally-derived neurospheres were generated from the striatum of E14.5 CD1 murine embryos according to methods previously described (Reynolds, B. A., and Weiss, S. (1996) Dev Biol 175, 1-13). The neurospheres were maintained in NeuroCult Proliferation Medium (StemCell Technologies, Canada) supplemented with 20 ng/ml basic fibroblast growth factor (bFGF) as per manufacturer's instructions.
Neurospheres were sub-cultured no more than once per collection. The differentiation of neurospheres was initated by plating spheres on poly-L-ornithine coated plates in NeuroCult Differentiation Medium in the absence of bFGF, as per manufacturer's instructions. […] All cultures received fresh media and inhibitor every 24 h for the duration of the experiment. Neurospheres from caspase 3 null embryos (Fernando, P., et al., (2002) Proc Natl Acad Sci USA 99, 11025-11030) were cultured as described above.
Immunocytochemistry: Neurospheres were collected at selected time points, fixed in 4% paraformaldehyde and prepared for immunostaining as previously described (Fernando, P., et al., (2002) Proc Natl Acad Sci USA 99, 11025-11030)). The primary antibody concentrations for anti-nestin, -GFAP, -MBP and -active caspase 3 (BioVision, USA) were titrated on wildtype CD1 neurospheres prior to their experimental use. These antibodies were visualized by counterstaining with either FITC or Cy3 conjugated secondary antibodies (Chemicon USA). Nuclei were localized with 4′,6-Diamidino-2 phenylindole (DAPI) (Sigma, USA). Cells were visualized using either an Axiovert 100 for transmission microscopy or Axioplan 2 for fluorescent microscopy (Zeiss, Germany) at selected magnifications. Captured images were processed using AxioVision Viewer 3.0 software.
Immunoblot Assays: Immunoblot analyses were performed as previously described (Fernando, P., et al., (2002) Proc Natl Acad Sci USA 99, 11025-11030). All samples were processed at 4° C. to maintain protein integrity. To generate neurosphere cell extracts, cultured neurospheres were collected at the indicated time points and solubilized in modified RIPA buffer containing protease and phosphatase inhibitors. Cells were sheared 4-5 times through a 21 gauge needle and mixed by 360° rotation at 4° C. for 30 minutes. Nestin 3 (AbCam, UK) was detected following the separation of total cellular proteins through a 6% acrylamide gel and Western transfer. Antibodies against neuronal class III […] and GFAP (AbCam, USA), active caspase 3 (BioVision, USA), 2′3′ cyclic nucleotide 3′ phosphohydrolase (CNPase) (Chemicon, USA) and p38α (Santa Cruz, USA) were used to detect proteins following separation by 10% polyacrylamide electrophoresis and Western transfer. In some instances, sample aliquots were sonicated following cell lysis in order to detect total cellular poly-ADP ribose polymerase (PARP) (BioVison, USA). Soluble PARP was assayed from unsonicated samples. Protein bands from Western blot assays were quantitated using Scion Image (Scion Corporation, USA).

MST1 = MST1 immunoblot and immunoprecipitation/Histone H1 kinase assay from C2C12 lysates; settings: for full-length MST1 protein level: C2C12, initial 24 h of low serum, Western blot
Method: Protein isolation, immunoblot analyses and immunocytochemistry. Cells from C2C12 and primary myoblast cultures were washed with ice-cold PBS and lysed on ice for 45 minutes in modified-RIPA buffer containing 20 mM NaF, 5 mM Na3VO4 and 10 μg/ml each of aprotinin, leupeptin, pepstatin and PMSF. Total protein was measured using the BCA protein assay (Pierce). Immunoblot analyses were performed as described (Creasy, C. L., & Chernoff, J. (1995) J. Biol. Chem. 270, 21695-21700) using antibodies for MST1, MKK6, p38γ, and p38α (Upstate), p38 and MEF2C (Cell Signaling Technologies), myogenin F5D and myosin heavy chain MF20 mAb (Developmental Hybridoma Bank), and active caspase-3 (Biovision).
Co-immunoprecipitation and kinase analyses. Immunoprecipitation was performed using 150-200 μg of total protein, incubated in modified-RIPA buffer at 4° C. for 16 h containing the respective antibody. Samples were mixed for 1 h with 25 μl of a 50% Protein G (Pharmacia). For co-immunoprecipitation, immunoprecipitates were washed in modified-RIPA buffer, boiled in 1× Lamelli buffer, separated by SDS-PAGE and Western blotted for immunoblot analyses. Immunoprecipitates used for kinase analyses were washed in modified-RIPA buffer and incubated in kinase buffer containing 20 mM MOPS (pH 7.2), 25 mM β-glycerophosphate, 5 mM EGTA, 1 mM Na3VO4 and 1 mM DTT supplemented with [γ-^32P]ATP and either recombinant MBP or recombinant Histone H1 (Upstate) as the target substrate. Samples were incubated for 30 min at 37° C. and then boiled in 1× Lamelli buffer. Following SDS-PAGE, gels were dried and phospho-incorporation was analyzed by autoradiography.
One kinase that was altered in activity co-migrated with a predicted pI (5.2) and molecular weight (36 kDa) consistent with Mammalian Sterile Twenty-like kinase (MST1). MST1 is a known caspase-3 activated kinase homologous to the yeast family of serine/threonine Ste20 kinases (Lechner, C., et al., (1996) Proc. Natl. Acad. Sci. USA 93, 43554359; Megeney, L. A., et al., (1996) Genes Dev 10, 1173-1183). […]

[2] = 2.0 μM inhibitor, differentiation media 48 h

nestin expression under differentiation conditions ([1]; 2.0 μM inhibitor, differentiation media, listed as DEVD): remained elevated
nestin after extended period in differentiation media ([1]; 4 d, immunoblot): a decrease in nestin was observed
full-length MST1 protein level (MST1): remained relatively unchanged
full-length MST1 protein level (MST1; listed as caspase-3 inhibitor): does not change
SMILES: COC(=O)CC[C@H](NC(=O)[C@H](CC(=O)OC)NC(=O)OCc1ccccc1)C(=O)N[C@H](C(=O)N[C@@H](CC(=O)OC)C(=O)CF)C(C)C [z-DEVD.fmk]
PAK2 activity (PAK2): did not observe differences in PAK2 activity
GFAP expression [1, 2]: significant decrease; also recorded: fail to express the astrocyte marker protein GFAP
MBP expression [1, 2]: significant decrease; also recorded: fail to express the oligodendrocyte marker protein MBP
nestin expression under differentiation conditions ([1]; 2.0 μM inhibitor, differentiation media): sustained expression of nestin; also recorded: remain in an early progenitor state and express nestin
nestin expression under differentiation conditions ([1]; 2.0 μM inhibitor, differentiation media, listed as z-DEVD): remained elevated during the early periods of differentiation
nestin expression under growth conditions ([1]; 2.0 μM inhibitor, growth conditions): did not affect nestin expression; also recorded: express nestin
β-III tubulin level after 5 d ([1]; 5 d differentiation, immunoblot): very low level of β-III tubulin was detectable
β-III tubulin (Tuj-1) accumulation ([1]; differentiation media, immunoblot, vs DMSO): did not increase; also recorded: lower in caspase 3 inhibited samples relative to control
MST1 kinase activity (Histone H1 phosphorylation) (MST1; MST1 immunoprecipitated from C2C12 lysates, 12 h low serum media): no phosphorylation above basal levels was detectable
